From ChEMBL document CHEMBL1201862, “PubChem BioAssay data set” (2004)
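Results reflect a 48-hour exposure of cells in 96-well plates to compound at five concentrations. GI50 = concentration required for 50% inhibition of growth.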 Calls of active or inactive are those of the source. No stated cut-off is given here; in the data, active = GI50 up to about 1.1 µM and inactive = higher.

What was measured:
Experiment in all cases: DTP human tumour cell line panel, 48 h
HCT-116 = system: HCT-116
UACC-257 = system: UACC-257
UACC-62 = system: UACC-62
NCI-H23 = system: NCI-H23
OVCAR-5 = system: OVCAR-5
K562 = system: K562
KM12 = system: KM12
OVCAR-8 = system: OVCAR-8
NCI-H460 = system: NCI-H460
786-0 = system: 786-0
ACHN = system: ACHN
Malme-3M = system: Malme-3M
SK-MEL-28 = system: SK-MEL-28
SN12C = system: SN12C
HOP-62 = system: HOP-62
HT-29 = system: HT-29

Measured: GI50

CC1=NN(C(=O)c2ccc(Cl)cc2)C(=O)/C1=C/c1cccc([N+](=O)[O-])c1
inactive: HCT-116 > 100 µM | UACC-257 > 100 µM | UACC-62 > 100 µM | NCI-H23 > 100 µM | OVCAR-5 > 100 µM | K562 > 100 µM | KM12 > 100 µM | OVCAR-8 > 100 µM | NCI-H460 > 100 µM | 786-0 > 100 µM | ACHN > 100 µM | Malme-3M > 100 µM | SK-MEL-28 > 100 µM | SN12C > 100 µM | HOP-62 > 100 µM | HT-29 > 100 µM

COc1nc(N)c(NC(C)=O)c(=O)n1C
inactive: HCT-116 > 100 µM | UACC-257 > 100 µM | NCI-H23 > 100 µM | OVCAR-5 > 100 µM | K562 > 100 µM | KM12 > 100 µM | OVCAR-8 > 100 µM | NCI-H460 > 100 µM | ACHN > 100 µM | Malme-3M > 100 µM | SK-MEL-28 > 100 µM | SN12C > 100 µM | HT-29 > 100 µM

CCCCN1C=CN2c3nc4cc(C)c(C)cc4n3C(C(=O)OC)=C(C(=O)OC)C12 (configuration not stated)
inactive: HCT-116 > 100 µM | UACC-257 > 100 µM | UACC-62 > 100 µM | NCI-H23 > 100 µM | OVCAR-5 > 100 µM | K562 > 100 µM | OVCAR-8 > 100 µM | NCI-H460 > 100 µM | ACHN > 100 µM | Malme-3M > 100 µM | SN12C > 100 µM | HOP-62 > 100 µM | HT-29 > 100 µM

CCOC(=O)/C(C#N)=C(N)/C(=N\Nc1cccc(C(F)(F)F)c1)C(=O)OCC
inactive: HCT-116 > 100 µM | UACC-257 > 100 µM | UACC-62 > 100 µM | NCI-H23 > 100 µM | OVCAR-5 > 100 µM | OVCAR-8 > 100 µM | 786-0 > 100 µM | ACHN > 100 µM | Malme-3M > 100 µM | SK-MEL-28 > 100 µM | SN12C > 100 µM | HOP-62 > 100 µM | HT-29 > 100 µM

CC1(C)OC(C(N)=O)=C(C(N)=O)O1
inactive: HCT-116 > 100 µM | UACC-257 > 100 µM | UACC-62 > 100 µM | NCI-H23 > 100 µM | OVCAR-5 > 100 µM | K562 > 100 µM | KM12 > 100 µM | OVCAR-8 > 100 µM | NCI-H460 > 100 µM | 786-0 > 100 µM | ACHN > 100 µM | Malme-3M > 100 µM | SK-MEL-28 > 100 µM | SN12C > 100 µM | HOP-62 > 100 µM | HT-29 > 100 µM

CC1CCCP(=O)(c2ccccc2)CC1 (configuration not stated)
inactive: UACC-257 > 100 µM | UACC-62 > 100 µM | NCI-H23 > 100 µM | OVCAR-5 > 100 µM | K562 > 100 µM | KM12 > 100 µM | OVCAR-8 > 100 µM | NCI-H460 > 100 µM | 786-0 > 100 µM | ACHN > 100 µM | Malme-3M > 100 µM | SK-MEL-28 > 100 µM | SN12C > 100 µM | HOP-62 > 100 µM | HT-29 > 100 µM

COc1ccc(-c2cc(N3CCN(c4ccc(Cl)cc4)CC3)c(C#N)c(=O)o2)cc1
inactive: HCT-116 12.6 µM | UACC-257 17.9 µM | NCI-H23 21.8 µM | OVCAR-5 > 100 µM | KM12 > 100 µM | OVCAR-8 5.28 µM | NCI-H460 10.5 µM | ACHN 6.64 µM | Malme-3M 7.74 µM | SK-MEL-28 6.9 µM | SN12C 15.1 µM | HT-29 > 100 µM

COc1ccc(C(=O)C(C(=O)C(=O)NCCCNC(=O)C(=O)C(C(=O)c2ccc(OC)cc2)c2ccc(OC)cc2)c2ccc(OC)cc2)cc1 (configuration not stated)
inactive: HCT-116 > 100 µM | UACC-257 > 100 µM | UACC-62 > 100 µM | NCI-H23 > 100 µM | OVCAR-5 > 100 µM | K562 > 100 µM | KM12 > 100 µM | OVCAR-8 > 100 µM | NCI-H460 > 100 µM | 786-0 > 100 µM | Malme-3M > 100 µM | SK-MEL-28 > 100 µM | HOP-62 > 100 µM | HT-29 > 100 µM

[O-]c1on[n+]2c1c(Nc1ccc(Cl)cc1)nc1ccccc12
inactive: HCT-116 > 100 µM | UACC-257 > 100 µM | UACC-62 > 100 µM | NCI-H23 > 100 µM | OVCAR-5 > 100 µM | K562 > 100 µM | KM12 > 100 µM | OVCAR-8 > 100 µM | NCI-H460 > 100 µM | 786-0 > 100 µM | ACHN > 100 µM | SK-MEL-28 > 100 µM | SN12C > 100 µM | HT-29 > 100 µM

Cc1ccc(NC(=O)/C(CC(=O)c2c[n+]([O-])c3ccccc3[n+]2[O-])=N\NC(=O)C[n+]2ccccc2)cc1
inactive: HCT-116 > 100 µM | UACC-257 > 100 µM | UACC-62 > 100 µM | OVCAR-5 > 100 µM | K562 48.6 µM | KM12 > 100 µM | OVCAR-8 > 100 µM | NCI-H460 > 100 µM | 786-0 > 100 µM | ACHN > 100 µM | Malme-3M > 100 µM | SK-MEL-28 > 100 µM | SN12C > 100 µM | HOP-62 > 100 µM | HT-29 > 100 µM

COC(=O)Cc1cc(=O)n2c([nH]c3ccccc32)c1C#N
inactive: HCT-116 > 100 µM | UACC-257 > 100 µM | NCI-H23 > 100 µM | OVCAR-5 > 100 µM | K562 > 100 µM | KM12 > 100 µM | OVCAR-8 > 100 µM | NCI-H460 35.9 µM | 786-0 > 100 µM | ACHN 63.1 µM | Malme-3M 81.3 µM | SK-MEL-28 > 100 µM | SN12C 82.6 µM | HOP-62 > 100 µM | HT-29 > 100 µM

Cc1cc(Cl)ccc1NC(=O)CCCC(=O)C(C(=O)c1ccccc1)c1ccccc1 (configuration not stated)
inactive: UACC-257 > 100 µM | UACC-62 > 100 µM | NCI-H23 > 100 µM | OVCAR-5 > 100 µM | K562 > 100 µM | KM12 > 100 µM | NCI-H460 > 100 µM | 786-0 > 100 µM | ACHN > 100 µM | Malme-3M > 100 µM | SN12C > 100 µM | HOP-62 93.5 µM | HT-29 > 100 µM

CCOC(=O)C1S/C(=N\c2ccc(C)c(C)c2)N=C1C (configuration not stated)
inactive: UACC-257 > 100 µM | UACC-62 > 100 µM | NCI-H23 > 100 µM | OVCAR-5 > 100 µM | K562 59.3 µM | KM12 > 100 µM | OVCAR-8 > 100 µM | NCI-H460 > 100 µM | 786-0 > 100 µM | ACHN > 100 µM | Malme-3M > 100 µM | SK-MEL-28 > 100 µM | SN12C > 100 µM | HOP-62 > 100 µM | HT-29 > 100 µM

C/C=C1/C(=Cc2[nH]c(C=c3[nH]/c(=C/C4=NC(=O)C(CC)=C4C)c(C)c3CCC(=O)O)c(CCC(=O)O)c2C)NC(=O)C1C (configuration not stated)
inactive: HCT-116 2.13 µM | UACC-257 11 µM | UACC-62 8 µM | NCI-H23 21.5 µM | OVCAR-5 8.49 µM | K562 2.21 µM | KM12 10.8 µM | OVCAR-8 4.13 µM | NCI-H460 13 µM | 786-0 2.41 µM | ACHN 13.7 µM | Malme-3M 13.6 µM | SK-MEL-28 47.6 µM | SN12C 3.3 µM | HOP-62 2.33 µM | HT-29 5.11 µM

CC1SC(c2ccccc2)N(Nc2c3ccccc3nc3ccccc23)C1=O (configuration not stated)
inactive: HCT-116 75.3 µM | UACC-257 83.6 µM | UACC-62 89.5 µM | NCI-H23 50.4 µM | OVCAR-5 78.7 µM | K562 40.6 µM | KM12 71.4 µM | OVCAR-8 74.1 µM | NCI-H460 > 100 µM | ACHN > 100 µM | Malme-3M > 100 µM | SK-MEL-28 > 100 µM | SN12C > 100 µM | HOP-62 > 100 µM | HT-29 > 100 µM

O=C1c2cccc3c2C(=O)c2c(cccc21)OCCOCCOCCOCCO3
inactive: HCT-116 > 100 µM | UACC-257 > 100 µM | UACC-62 > 100 µM | NCI-H23 > 100 µM | OVCAR-5 > 100 µM | K562 61.4 µM | OVCAR-8 > 100 µM | NCI-H460 78.3 µM | ACHN 78.5 µM | Malme-3M > 100 µM | SN12C > 100 µM | HOP-62 > 100 µM | HT-29 > 100 µM

COC(=O)[C@]1(C)CCCC2(C)C1CC[C@H]1C=C(C)[C@H]3CCC12C3 (some centres not stated)
inactive: HCT-116 40.3 µM | UACC-257 37.5 µM | UACC-62 > 100 µM | NCI-H23 > 100 µM | OVCAR-5 > 100 µM | K562 > 100 µM | KM12 > 100 µM | OVCAR-8 > 100 µM | NCI-H460 44.5 µM | 786-0 > 100 µM | ACHN > 100 µM | Malme-3M > 100 µM | SK-MEL-28 > 100 µM | SN12C > 100 µM | HOP-62 > 100 µM | HT-29 49.9 µM

CC(=O)N[C@@H]1C(O)CN2C(=O)C(=O)O[C@H](C(O)CO)[C@@H]12 (some centres not stated)
inactive: HCT-116 > 100 µM | UACC-257 > 100 µM | OVCAR-5 > 100 µM | K562 > 100 µM | KM12 > 100 µM | OVCAR-8 > 100 µM | NCI-H460 > 100 µM | 786-0 > 100 µM | ACHN > 100 µM | Malme-3M > 100 µM | SK-MEL-28 > 100 µM | HOP-62 > 100 µM | HT-29 > 100 µM
